Data taken from the supplement of paper PMC10307832.

How the values were obtained:
Test in all cases: relative viability (nuclei count vs DMSO), 5 days (fraction); higher = more cells survive
Dabrafenib + Crizotinib = compound: CC(C)(C)c1nc(-c2cccc(NS(=O)(=O)c3c(F)cccc3F)c2F)c(-c2ccnc(N)n2)s1 [Dabrafenib] + C[C@@H](Oc1cc(-c2cnn(C3CCNCC3)c2)cnc1N)c1c(Cl)ccc(F)c1Cl [Crizotinib] (partner 1 µM)
Outline: (§1)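 Lung cancer cell lines were pin-tool dosed in 1536-well plates on the day after seeding, with either a lone drug or a fixed anchor-drug dose plus five library-drug doses (not always all listed) in √10 steps. Nuclei were counted on 4× images after 5 days. Relative viability is the ratio of treated-well to vehicle-well nuclei counts, with each value a median of duplicate plates.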

Dabrafenib + Palbociclib = compound: CC(C)(C)c1nc(-c2cccc(NS(=O)(=O)c3c(F)cccc3F)c2F)c(-c2ccnc(N)n2)s1 [Dabrafenib] + CC(=O)c1c(C)c2cnc(Nc3ccc(N4CCNCC4)cn3)nc2n(C2CCCC2)c1=O [Palbociclib] (partner 0.5 µM)
Outline: as §1

VX-702 + Bortezomib = compound: NC(=O)c1ccc(N(C(N)=O)c2c(F)cccc2F)nc1-c1ccc(F)cc1F [VX-702] + CC(C)C[C@H](NC(=O)[C@H](Cc1ccccc1)NC(=O)c1cnccn1)B(O)O [Bortezomib] (partner 0.002 µM)
Outline: as §1

VX-702 + Vorinostat = compound: NC(=O)c1ccc(N(C(N)=O)c2c(F)cccc2F)nc1-c1ccc(F)cc1F [VX-702] + O=C(CCCCCCC(=O)Nc1ccccc1)NO [Vorinostat] (partner 1 µM)
Outline: as §1

Cell Line | relative viability (Dabrafenib + Crizotinib; first compound 0.003 µM) | relative viability (Dabrafenib + Crizotinib; first compound 0.009487 µM) | relative viability (Dabrafenib + Crizotinib; first compound 0.03 µM) | relative viability (Dabrafenib + Crizotinib; first compound 0.09487 µM) | relative viability (Dabrafenib + Crizotinib; first compound 0.3 µM) | relative viability (Dabrafenib + Palbociclib; first compound 0.003 µM) | relative viability (Dabrafenib + Palbociclib; first compound 0.009487 µM) | relative viability (Dabrafenib + Palbociclib; first compound 0.03 µM) | relative viability (Dabrafenib + Palbociclib; first compound 0.3 µM) | relative viability (VX-702 + Bortezomib; first compound 0.02 µM) | relative viability (VX-702 + Bortezomib; first compound 0.2 µM) | relative viability (VX-702 + Bortezomib; first compound 0.6325 µM) | relative viability (VX-702 + Bortezomib; first compound 2 µM) | relative viability (VX-702 + Vorinostat; first compound 0.02 µM) | relative viability (VX-702 + Vorinostat; first compound 0.2 µM) | relative viability (VX-702 + Vorinostat; first compound 0.6325 µM) | relative viability (VX-702 + Vorinostat; first compound 2 µM) | relative viability (Dabrafenib + Palbociclib; first compound 0.09487 µM)
HCC-827 | 0.873 | 0.945 | 0.864 | 0.696 | 0.942 | 0.465 | 0.3 | 0.374 | 0.525 | 0.966 | 1.03 | 0.997 | 0.541 | 0.879 | 0.799 | 0.885 | 0.827 | 
HOP-62 |  | 0.807 | 1.05 | 0.913 | 0.805 | 0.466 | 0.423 | 0.433 | 0.498 | 0.67 | 0.566 | 0.696 | 0.653 | 0.869 | 0.697 | 0.744 | 0.817 | 0.471
IA-LM | 1.01 | 0.756 | 0.702 | 0.628 | 0.46 |  |  |  |  | 0.787 | 0.796 | 0.872 | 0.919 | 0.937 | 0.936 | 0.853 | 0.878 | 
LC-2-ad | 0.42 | 0.398 | 0.389 | 0.426 | 0.447 | 0.52 | 0.511 | 0.495 | 0.478 | 1.08 | 1.08 | 1.12 | 1.22 | 0.693 | 0.678 | 0.773 | 0.803 | 0.476
LCLC-97TM1 |  | 0.325 | 0.406 |  | 0.287 |  | 0.206 | 0.266 | 0.198 | 0.526 | 0.592 | 0.667 | 0.709 | 0.732 | 0.787 | 0.782 | 0.878 | 0.184
LCLC-103H | 1 | 1.13 | 0.935 | 1.17 | 1.06 | 0.467 | 0.495 | 0.432 | 0.514 | 1.17 | 0.949 | 1.05 | 1.11 | 0.813 | 0.799 | 0.835 | 0.839 | 0.455
LK-2 | 0.211 | 0.223 |  | 0.254 | 0.197 | 0.687 | 0.377 |  | 0.84 |  |  |  |  | 0.258 | 0.275 | 0.283 | 0.385 | 0.555
LOU-NH91 |  | 0.759 | 0.717 | 0.672 | 0.757 |  | 0.558 | 0.589 | 0.543 | 0.507 | 0.502 | 0.513 | 0.532 | 0.957 | 0.845 | 0.895 | 0.857 | 0.533
LU99A | 0.585 | 0.525 | 0.466 | 0.562 | 0.484 | 0.477 | 0.387 | 0.388 | 0.393 | 1.09 | 1.05 | 1.14 | 0.934 | 0.412 | 0.452 | 0.49 | 0.485 | 0.39
LXF-289 | 0.802 | 0.833 | 0.892 | 0.804 | 0.883 | 0.59 | 0.594 | 0.673 | 0.616 | 1.03 | 1.03 | 0.998 | 1.02 | 0.816 | 0.765 | 0.811 | 0.786 | 0.62
NCI-H23 |  | 0.603 | 0.541 | 0.421 | 0.495 |  | 0.575 | 0.465 | 0.634 | 1.07 | 0.892 | 1.22 | 1.16 | 0.491 | 0.566 | 0.575 | 0.669 | 0.455
NCI-H358 |  | 0.662 | 0.553 | 0.631 | 0.476 | 0.111 | 0.149 | 0.12 | 0.122 |  |  |  |  | 0.675 | 0.601 | 0.669 | 0.972 | 0.153
NCI-H522 |  |  |  |  |  |  | 1.02 | 0.932 | 1.08 |  |  |  |  | 1.06 | 0.899 | 1.03 | 1.11 | 0.952
NCI-H596 | 1.48 | 1.06 | 0.86 | 0.954 | 0.932 |  |  |  |  | 1.2 | 0.963 | 0.962 | 1.25 | 0.636 | 0.439 | 0.637 | 0.581 | 
NCI-H1299 | 1.01 | 0.91 | 0.961 | 0.882 | 0.806 |  |  |  |  | 1.09 | 1.03 | 1.12 | 1.09 |  |  |  |  | 
NCI-H1395 |  |  |  |  |  |  | 0.655 | 0.623 | 0.623 |  |  |  |  | 0.701 | 0.686 | 0.683 | 0.884 | 0.642
NCI-H1563 | 0.865 | 0.933 | 0.868 | 0.908 | 0.953 |  |  |  |  | 0.812 | 0.891 | 0.918 | 0.616 |  |  |  |  | 
NCI-H1648 |  |  |  |  |  | 0.317 | 0.215 |  | 0.329 |  |  |  |  | 0.242 | 0.271 | 0.397 | 0.364 | 0.251
NCI-H1703 | 1.09 | 0.76 | 0.584 | 0.609 | 0.729 |  |  |  |  | 0.286 | 0.37 | 0.255 | 0.289 |  |  |  |  | 
NCI-H1792 |  | 0.974 | 0.891 | 0.833 | 0.873 |  | 0.718 | 0.66 | 0.66 | 0.863 | 0.978 | 0.966 | 1.21 |  |  |  |  | 0.63
NCI-H1793 |  |  |  |  |  |  | 0.411 |  | 0.291 |  |  |  |  | 0.669 |  | 0.757 | 0.591 | 0.289
NCI-H1944 | 1.13 | 1.09 | 1.05 | 0.971 | 1.03 | 0.325 | 0.342 | 0.326 | 0.318 |  |  |  |  | 0.625 | 0.557 | 0.558 | 0.414 | 0.319
NCI-H2170 | 1.28 | 1.24 | 0.96 | 1.02 | 1.27 | 0.429 | 0.377 | 0.383 | 0.397 |  |  |  |  | 0.967 | 0.734 | 0.842 | 0.874 | 0.377
NCI-H2342 |  |  |  |  |  | 0.511 | 0.566 | 0.474 | 0.523 |  |  |  |  | 0.717 | 0.956 | 0.832 | 0.867 | 0.608
SK-MES-1 | 0.919 | 0.985 | 1.04 | 0.912 | 0.962 |  | 0.296 | 0.27 | 0.31 |  |  |  |  | 1.09 | 1.08 | 1.06 | 1.11 | 0.258
